{"source": "patent US20190059378A1", "about": "“SYNERGISTIC FUNGICIDAL COMPOSITION FOR CONTROLLING PLANT DISEASES” (Sumitomo Chemical Company, Limited, priority 2016, published 2019)", "key": {"[1]": {"system": "Brown rust (Puccinia recondita)", "assay": "Test Example 4: foliar spray on wheat, Brown rust lesion area", "assay_type": "in vivo, Puccinia recondita on wheat (cultivar. Shirogane)", "conditions": "single use, foliar spray one day before inoculation", "description": "Five(5) parts of the present compound 1-1, 35 parts of a mixture of white carbon and ammonium polyoxyethylene alkyl ether sulfate (the weight ratio of 1:1) and 55 parts of water were mixed, and the mixture was then finely-ground by a wet grinding method to obtain a flowable comprising the present compound 1-1. Separately, the flowable comprising the present compound 2 was prepared according to the above-mentioned similar method except that the present compound 2 was used instead of the present compound 1-1.\nEach of the flowable comprising the present compound 1-1 and the flowable comprising the present compound 2 was diluted with water and if necessary, the resultant dilute solutions were mixed each other such that each concentration of the respective compounds in the dilution solution was adjusted to the concentration indicated in Table 4, to prepare the dilution solutions, respectively.\nA plastic pot was filled with soil, and thereto wheat (cultivar. Shirogane) was seeded, and the plants were grown in a greenhouse for ten days. The above-mentioned dilution solutions were sprayed to foliar parts so as to adhere adequately onto the surfaces of leaves of the above wheats. After spraying the dilute solution, the plants were air-dried, and one day after the application, an aqueous suspension of uredospores of Brown rust (Puccinia recondita) was inoculated by spraying thereto. After the inoculation, the plants were placed at 27° C. under humid condition for one day, and were then cultivated under lighting for ten days, and a lesion area was examined (hereinafter referred to as “lesion area of treated group”).\nWhereas, wheats were cultivated similarly to the treated group except that no foliage application of the above-mentioned agent solution was done, and Brown rust were inoculated, and the lesion area thereof was examined (hereinafter referred to as “lesion area of the untreated group”).\nFrom each of the lesion area of the treated group and the untreated group, respectively, the efficacy of the treated group was calculated by the following Equation 2. […]"}, "[2]": {"system": "Septoria leaf blotch (Mycosphaerella graminicola)", "assay": "Test Example 3: growth of Septoria leaf blotch in YBG medium in microtiter plate (absorbance at 550 nm)", "assay_type": "cell-based", "conditions": "single use, 18° C., four days", "description": "Each of the present compound 1-1 or the present compound 2 was dissolved into dimethyl sulfoxide such that each concentration of these compounds was adjusted to one hundred fifty times as much as the concentration indicated in the below-mentioned Table 3. The resultant agent solution was dispensed into each microtiter plate (with 96 wells) in 1 μl portion thereof per well. […] The plate was cultivated at 18° C. for four days, thereby allowing Septoria leaf blotch (Mycosphaerella graminicola) to undergo proliferation, and the absorbance at 550 nm of each well of the microtiter plate was then measured to examine a degree of growth of Septoria leaf blotch (hereinafter referred to as “treated group”).\nWhereas, Septoria leaf blotch was proliferated similarly to the case of the treated group except that dimethyl sulfoxide was used instead of the agent solution, and the degree of the growth was examined (hereinafter referred to as “untreated group”). The efficacy was calculated from each of the obtained degree of growth of the treated group and the untreated group respectively by the following “Equation 1”. […]"}}, "data": [{"smiles": "Cc1nnc(Cl)c(-c2c(F)cccc2F)c1-c1ccccc1", "note": "[Present compound 1-1]", "values": [{"measurement": "Efficacy (%)", "setting": "[1]; concentration in agent solution 0.0001 ppm", "result": 20, "unit": "%"}, {"measurement": "Efficacy (%)", "setting": "[1]; concentration in agent solution 0.01 ppm", "result": 31, "unit": "%"}, {"measurement": "Efficacy (%)", "setting": "[2]; concentration in medium 0.005 ppm", "result": 4, "unit": "%"}]}, {"smiles": "CC1CC(C)(C)c2c(F)ccc(NC(=O)c3cn(C)nc3C(F)F)c21", "note": "(centres unmarked) [Present compound 2]", "values": [{"measurement": "Efficacy (%)", "setting": "[1]; concentration in agent solution 0.001 ppm", "result": 15, "unit": "%"}, {"measurement": "Efficacy (%)", "setting": "[2]; concentration in medium 0.05 ppm", "result": 55, "unit": "%"}]}]}
